Measurements reported in patent US9012655B2, “Antimicrobial/adjuvant compounds and methods” (Denouamed, Inc., priority 2011, dated 2015).
Converted amounts (≈) assume the structure as drawn.

Assays:
Assay type in all cases: cell-based
Bacillus cereus NCTC6349 = assay: MIC panel of challenge pathogens (CLSI); settings: Bacillus cereus NCTC6349; for MIC: read-out: 100% inhibition; for MIC50: read-out: MIC50 (50%); for MIC80: read-out: MIC80 (80%)
Protocol: (§1) The inocula for each bacterial strain were prepared by picking 5-10 distinct colonies from the culture plates and suspending them in the appropriate broth as per Clinical and Laboratory Standards Institute (CLSI) guidelines M07-A8, M24-A or M11-A7 as appropriate. The inoculum was resuspended by vigorous shaking on a vortex mixer for 15 s. The turbidity was then adjusted to McFarland standard 0.5 ([…]). The inoculum was further diluted in the appropriate media for MIC tests to give a final inoculum in each well of 2-8×10^5 CFU/ml. MICs were tested in the appropriate broth in accordance with the appropriate CLSI guidelines.
(§2) A stock solution of each compound was prepared at a concentration of 1.28 g/L in DMSO. The stock was further diluted in the appropriate media to give a top starting concentration of 128 mg/L in the assay. 100 μL of the appropriate media, as per CLSI guidelines, was dispensed into each well in columns 2-12. 200 μL of the each compound solution (at 256 mg/L) was dispensed into each well in column 1. 100 μL aliquots were pipetted from column 1 wells and dispensed into column 2 with a multichannel pipette (±2% coefficient of variation) thus diluting two-fold. 100 μL samples were then pipetted from column 2 wells and dispensed into column 3. The process was repeated through to column 10. The final 100 μL of diluted drug from column 10 was then discarded. Row 11 acted as a positive control (no compound, but organisms added), Row 12 acted as a negative control (no compound, and no organisms added).
(§3) 100 μL of the appropriate inoculum suspension in the appropriate media, as per CLSI guidelines, was added to the appropriate wells. […] All plates were incubated in the dark under aerobic or anaerobic conditions at 30-37° C. for 24-48 hours, according to the appropriate CLSI guideline. Plates were read visually 24-48 hours post inoculation. Endpoints of 100% inhibition were determined (CLSI interpretation endpoints following visual examination).
(§4) MIC50, MIC80, and 100% inhibition results are reported below in μg/mL in the following Tables, indicating each compound tested against a given species and strain: […]

[1] = tested on: Enterococcus faecalis ATCC51299; assay: MIC panel of challenge pathogens (CLSI); settings: Enterococcus faecalis ATCC51299; for MIC: read-out: 100% inhibition; for MIC50: read-out: MIC50 (50%); for MIC80: read-out: MIC80 (80%)
Protocol: as §1, §2, §3, §4

[2] = tested on: Staphylococcus aureus ATCC43300; assay: MIC panel of challenge pathogens (CLSI); settings: Staphylococcus aureus ATCC43300; for MIC: read-out: 100% inhibition; for MIC50: read-out: MIC50 (50%); for MIC80: read-out: MIC80 (80%)
Protocol: as §1, §2, §3, §4

[3] = tested on: Staphylococcus aureus AUR58 7005; assay: MIC panel of challenge pathogens (CLSI); settings: AUR587005, Staphylococcus aureus AUR58 7005; for MIC: read-out: 100% inhibition; for MIC50: read-out: MIC50 (50%); for MIC80: read-out: MIC80 (80%)
Protocol: as §1, §2, §3, §4

[4] = tested on: Staphylococcus aureus AUR59 7005; assay: MIC panel of challenge pathogens (CLSI); settings: AUR597005, Staphylococcus aureus AUR59 7005; for MIC: read-out: 100% inhibition; for MIC50: read-out: MIC50 (50%); for MIC80: read-out: MIC80 (80%)
Protocol: as §1, §2, §3, §4

[5] = tested on: Staphylococcus aureus EUP MRSA004; assay: MIC panel of challenge pathogens (CLSI); settings: EUPMRSA004, Staphylococcus aureus EUP MRSA004; for MIC: read-out: 100% inhibition; for MIC50: read-out: MIC50 (50%); for MIC80: read-out: MIC80 (80%)
Protocol: as §1, §2, §3, §4

[6] = tested on: Staphylococcus aureus EUP SAU040; assay: MIC panel of challenge pathogens (CLSI); settings: EUPSAU040, Staphylococcus aureus EUP SAU040; for MIC: read-out: 100% inhibition; for MIC50: read-out: MIC50 (50%); for MIC80: read-out: MIC80 (80%)
Protocol: as §1, §2, §3, §4

[7] = tested on: Staphylococcus aureus NRS2 (ATCC700698); assay: MIC panel of challenge pathogens (CLSI); settings: Staphylococcus aureus NRS2 (ATCC700698); for MIC: read-out: 100% inhibition; for MIC50: read-out: MIC50 (50%); for MIC80: read-out: MIC80 (80%)
Protocol: as §1, §2, §3, §4

[8] = tested on: Staphylococcus aureus NRS382; assay: MIC panel of challenge pathogens (CLSI); settings: Staphylococcus aureus NRS382; for MIC: read-out: 100% inhibition; for MIC50: read-out: MIC50 (50%); for MIC80: read-out: MIC80 (80%)
Protocol: as §1, §2, §3, §4

[9] = tested on: Staphylococcus aureus NRS384; assay: MIC panel of challenge pathogens (CLSI); settings: Staphylococcus aureus NRS384; for MIC: read-out: 100% inhibition; for MIC50: read-out: MIC50 (50%); for MIC80: read-out: MIC80 (80%)
Protocol: as §1, §2, §3, §4

[10] = tested on: Staphylococcus epidermidis NRS122; assay: MIC panel of challenge pathogens (CLSI); settings: Staphylococcus epidermidis NRS122; for MIC: read-out: 100% inhibition; for MIC50: read-out: MIC50 (50%); for MIC80: read-out: MIC80 (80%)
Protocol: as §1, §2, §3, §4

[11] = tested on: Staphylococcus aureus EUP MRSA002; assay: MIC panel of challenge pathogens (CLSI), EUP MRSA002; settings: EUPMRSA002, Staphylococcus aureus EUP MRSA002; for MIC: read-out: 100% inhibition; for MIC50: read-out: MIC50 (50%); for MIC80: read-out: MIC80 (80%)
Protocol: as §1, §2, §3, §4

| SMILES | MIC (Bacillus cereus NCTC6349) [µg/mL] | MIC50 (Bacillus cereus NCTC6349) [µg/mL] | MIC80 (Bacillus cereus NCTC6349) [µg/mL] | MIC [1] [µg/mL] | MIC50 [1] [µg/mL] | MIC80 [1] [µg/mL] | MIC [2] [µg/mL] | MIC50 [2] [µg/mL] | MIC80 [2] [µg/mL] | MIC [3] [µg/mL] | MIC50 [3] [µg/mL] | MIC80 [3] [µg/mL] | MIC [4] [µg/mL] | MIC50 [4] [µg/mL] | MIC80 [4] [µg/mL] | MIC [5] [µg/mL] | MIC50 [5] [µg/mL] | MIC80 [5] [µg/mL] | MIC [6] [µg/mL] | MIC50 [6] [µg/mL] | further results |
| --- | --- | --- | --- | --- | --- | --- | --- | --- | --- | --- | --- | --- | --- | --- | --- | --- | --- | --- | --- | --- | --- |
| Cc1cc(Cl)ccc1-c1cc(-c2nnn[nH]2)sc1-c1ccc(Cl)cc1C [DNM0488, 5-(4,5-Bis(4-chloro-2-methylphenyl)thiophen-2-yl)-1H-tetrazole] | ≤ 0.25 | ≤ 0.25 | ≤ 0.25 | 0.5 (≈ 1.25 µM) | 0.5 (≈ 1.25 µM) | 0.5 (≈ 1.25 µM) | 0.5 (≈ 1.25 µM) | 0.5 (≈ 1.25 µM) | 0.5 (≈ 1.25 µM) | 1 (≈ 2.49 µM) | 0.5 (≈ 1.25 µM) | 0.5 (≈ 1.25 µM) | 0.5 (≈ 1.25 µM) | 0.5 (≈ 1.25 µM) | 0.5 (≈ 1.25 µM) | 0.5 (≈ 1.25 µM) | 0.5 (≈ 1.25 µM) | 0.5 (≈ 1.25 µM) | 0.5 (≈ 1.25 µM) | 0.5 (≈ 1.25 µM) | MIC80 [6]: 0.5 µg/mL (≈ 1.25 µM); MIC [7]: 0.5 µg/mL (≈ 1.25 µM); MIC50 [7]: 0.5 µg/mL (≈ 1.25 µM); MIC80 [7]: 0.5 µg/mL (≈ 1.25 µM); MIC [8]: 0.5 µg/mL (≈ 1.25 µM); MIC50 [8]: 0.5 µg/mL (≈ 1.25 µM); MIC80 [8]: 0.5 µg/mL (≈ 1.25 µM); MIC [9]: 0.5 µg/mL (≈ 1.25 µM); MIC50 [9]: 0.5 µg/mL (≈ 1.25 µM); MIC80 [9]: 0.5 µg/mL (≈ 1.25 µM); MIC [10]: 2 µg/mL (≈ 4.98 µM); MIC50 [10]: 1 µg/mL (≈ 2.49 µM); MIC80 [10]: 2 µg/mL (≈ 4.98 µM); MIC [11]: 0.5 µg/mL (≈ 1.25 µM); MIC50 [11]: 0.5 µg/mL (≈ 1.25 µM); MIC80 [11]: 0.5 µg/mL (≈ 1.25 µM) |
| Cc1ccc(Cl)cc1-c1cc(-c2nnn[nH]2)sc1-c1cc(Cl)ccc1C [DNM0508, 5-(4,5-Bis(5-chloro-2-methylphenyl)thiophen-2-yl)-1H-tetrazole] | 0.5 (≈ 1.25 µM) | 0.5 (≈ 1.25 µM) | 0.5 (≈ 1.25 µM) | 2 (≈ 4.98 µM) | 2 (≈ 4.98 µM) | 2 (≈ 4.98 µM) | 1 (≈ 2.49 µM) | 1 (≈ 2.49 µM) | 1 (≈ 2.49 µM) | 1 (≈ 2.49 µM) | 1 (≈ 2.49 µM) | 1 (≈ 2.49 µM) | 1 (≈ 2.49 µM) | 1 (≈ 2.49 µM) | 1 (≈ 2.49 µM) | 1 (≈ 2.49 µM) | 1 (≈ 2.49 µM) | 1 (≈ 2.49 µM) | 1 (≈ 2.49 µM) | 1 (≈ 2.49 µM) | MIC80 [6]: 1 µg/mL (≈ 2.49 µM); MIC [7]: 1 µg/mL (≈ 2.49 µM); MIC50 [7]: 0.5 µg/mL (≈ 1.25 µM); MIC80 [7]: 1 µg/mL (≈ 2.49 µM); MIC [8]: 1 µg/mL (≈ 2.49 µM); MIC50 [8]: 1 µg/mL (≈ 2.49 µM); MIC80 [8]: 1 µg/mL (≈ 2.49 µM); MIC [9]: 1 µg/mL (≈ 2.49 µM); MIC50 [9]: 1 µg/mL (≈ 2.49 µM); MIC80 [9]: 1 µg/mL (≈ 2.49 µM); MIC [10]: 8 µg/mL (≈ 19.9 µM); MIC50 [10]: 4 µg/mL (≈ 9.97 µM); MIC80 [10]: 8 µg/mL (≈ 19.9 µM); MIC [11]: 1 µg/mL (≈ 2.49 µM); MIC50 [11]: 1 µg/mL (≈ 2.49 µM); MIC80 [11]: 1 µg/mL (≈ 2.49 µM) |
| Clc1ccc(Cc2sc(-c3nnn[nH]3)cc2-c2cccc(CC3CCCC3)c2)cc1 [DNM0610, 5-(5-(4-Chlorobenzyl)-4-(3-(cyclopentylmethyl)phenyl)thiophen-2-yl)-1H-tetrazole] | 0.5 (≈ 1.15 µM) | 0.5 (≈ 1.15 µM) | 0.5 (≈ 1.15 µM) | 1 (≈ 2.3 µM) | 1 (≈ 2.3 µM) | 1 (≈ 2.3 µM) | 0.5 (≈ 1.15 µM) | 0.5 (≈ 1.15 µM) | 0.5 (≈ 1.15 µM) | 2 (≈ 4.6 µM) | 1 (≈ 2.3 µM) | 2 (≈ 4.6 µM) | 0.5 (≈ 1.15 µM) | 0.5 (≈ 1.15 µM) | 0.5 (≈ 1.15 µM) | ≤ 0.25 | ≤ 0.25 | ≤ 0.25 | 0.5 (≈ 1.15 µM) | 0.5 (≈ 1.15 µM) | MIC80 [6]: 0.5 µg/mL (≈ 1.15 µM); MIC [7]: 0.5 µg/mL (≈ 1.15 µM); MIC50 [7]: 0.5 µg/mL (≈ 1.15 µM); MIC80 [7]: 0.5 µg/mL (≈ 1.15 µM); MIC [8]: 0.5 µg/mL (≈ 1.15 µM); MIC50 [8]: 0.5 µg/mL (≈ 1.15 µM); MIC80 [8]: 0.5 µg/mL (≈ 1.15 µM); MIC [9]: ≤ 0.25 µg/mL; MIC50 [9]: ≤ 0.25 µg/mL; MIC80 [9]: ≤ 0.25 µg/mL; MIC [10]: 16 µg/mL (≈ 36.8 µM); MIC50 [10]: 4 µg/mL (≈ 9.2 µM); MIC80 [10]: 8 µg/mL (≈ 18.4 µM); MIC [11]: 0.5 µg/mL (≈ 1.15 µM); MIC50 [11]: 0.5 µg/mL (≈ 1.15 µM); MIC80 [11]: 0.5 µg/mL (≈ 1.15 µM) |
